Measured values: US12509444B2, “Compounds and methods for CD73 modulation and indications therefor” (Plexxikon Inc., priority 2019, dated 2025)

Legend:
[1] = target: T1, Human CD73 (amino acid residues 27-549) (Homo sapiens, UniProt P21589); assay: CD73 enzymatic assay (luciferase-based indirect assay, CellTiter-Glo); type: biochemical; details: 0.4 nM CD73, 150 μM AMP, 1 hour at room temperature
T1 construct: Human CD73 (amino acid residues 27-549); His tag (N); made in house; host or cells: E. coli
T1 sequence (P21589 27-549): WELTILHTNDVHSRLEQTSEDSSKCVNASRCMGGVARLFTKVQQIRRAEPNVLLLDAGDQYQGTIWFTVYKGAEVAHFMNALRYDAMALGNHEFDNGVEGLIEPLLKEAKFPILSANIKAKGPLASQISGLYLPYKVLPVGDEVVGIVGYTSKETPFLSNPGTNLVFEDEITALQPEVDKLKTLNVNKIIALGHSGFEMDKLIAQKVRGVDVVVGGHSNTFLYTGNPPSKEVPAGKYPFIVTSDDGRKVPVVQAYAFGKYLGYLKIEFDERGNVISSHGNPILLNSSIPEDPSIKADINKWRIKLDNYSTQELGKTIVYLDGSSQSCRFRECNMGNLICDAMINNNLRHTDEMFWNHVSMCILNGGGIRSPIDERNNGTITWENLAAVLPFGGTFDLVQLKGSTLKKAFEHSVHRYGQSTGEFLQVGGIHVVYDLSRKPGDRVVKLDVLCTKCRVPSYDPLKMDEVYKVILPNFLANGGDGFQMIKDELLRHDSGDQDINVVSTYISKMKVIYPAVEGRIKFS
How it was run: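 Residual AMP inhibits luciferase, so luminescence reports CD73 turnover; read with CellTiter-Glo 2.0 plus 1 μM final ATP, 30 min. Reaction used 0.4 nM N-His CD73 (27-549, E. coli), 150 μM AMP, HEPES pH 7.4 with Tween 20, 1 h at room temperature. IC50 fitted by nonlinear regression.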

[2] = target: T2, human CD73 (Homo sapiens, UniProt P21589); assay: Inhibitor activity against CD73 in cell based assay (CD73 expressing CHO-K1 cells); details: CHO-K1 cells expressing human CD73, 150 μM AMP, 4 hours of incubation; read-out: CHO-K1 CELL VARIANT: CD73 IC50
T2 construct: expressed in transfected cells
T2 sequence (P21589 27-549): T1 sequence (P21589 27-549)
How it was run: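 Residual supernatant AMP was quantified via CellTiter-Glo luminescence (1 μM ATP added, 30 min, room temperature) after a 4 h exposure of human CD73-expressing CHO-K1 cells to 150 μM AMP plus compound, top final 10 μM, 8 points. IC50 came from nonlinear regression of percent inhibition.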

Row | Compound | IC50 [1] [µM] | IC50 [2] [µM]
1 | O=C(N[C@H]1CC[C@@H](NS(=O)(=O)c2ccc(F)cc2)CC1)O[C@@H]1CCN(c2cn[nH]c(=O)c2Cl)C1 [P-0185, (R)-1-(5-chloro-6-oxo-1,6-dihydropyridazin-4-yl)pyrrolidin-3-yl ((1s,4S)-4-((4-fluorophenyl)sulfonamido)cyclohexyl)carbamate] | 0.001 to 10 | 0.001 to 10
2 | O=C(N[C@H]1CC[C@@H](NC(=O)c2ccccc2)CC1)O[C@@H]1CCN(c2cn[nH]c(=O)c2Cl)C1 [P-0186, (R)-1-(5-chloro-6-oxo-1,6-dihydropyridazin-4-yl)pyrrolidin-3-yl ((1s,4S)-4-benzamidocyclohexyl) carbamate] | 0.001 to 10 | 0.001 to 10
3 | COC(=O)[C@H]1CC[C@H](NC(=O)O[C@@H]2CCN(c3cn[nH]c(=O)c3Cl)C2)CC1 [P-0187, methyl (1R,4r)-4-(((((R)-1-(5-chloro-6-oxo-1,6-dihydropyridazin-4-yl)pyrrolidin-3-yl)oxy)carbonyl)amino) cyclohexane-1-carboxylate] | 0.001 to 10 | 0.001 to 10
4 | COC(=O)[C@H]1C[C@H](NC(=O)O[C@@H]2CCN(c3cn[nH]c(=O)c3Cl)C2)C1 [P-0188, methyl (1R,3r)-3-(((((R)-1-(5-chloro-6-oxo-1,6-dihydropyridazin-4-yl)pyrrolidin-3-yl)oxy)carbonyl)amino) cyclobutane-1-carboxylate] | 0.001 to 10 | 0.001 to 10
5 | O=C(Nc1ccc(F)cc1)N[C@H]1CC[C@@H](NC(=O)O[C@@H]2CCN(c3cn[nH]c(=O)c3Cl)C2)CC1 [P-0189, (R)-1-(5-chloro-6-oxo-1,6-dihydropyridazin-4-yl)pyrrolidin-3-yl ((1s,4S)-4-(3-(4-fluorophenyl)ureido)cyclohexyl)carbamate] | 0.001 to 10 | 0.001 to 10
6 | O=C(N[C@H]1CC[C@H](C(=O)O)CC1)O[C@@H]1CCN(c2cn[nH]c(=O)c2Cl)C1 [P-0190, (1R,4r)-4-(((((R)-1-(5-chloro-6-oxo-1,6-dihydropyridazin-4-yl)pyrrolidin-3-yl)oxy)carbonyl)amino) cyclohexane-1-carboxylic acid] | 0.001 to 10 | 10 to 100
7 | CCCNC(=O)[C@H]1CC[C@H](NC(=O)O[C@@H]2CCN(c3cn[nH]c(=O)c3Cl)C2)CC1 [P-0191, (R)-1-(5-chloro-6-oxo-1,6-dihydropyridazin-4-yl)pyrrolidin-3-yl ((1r,4R)-4-(propylcarbamoyl)cyclohexyl) carbamate] | 0.001 to 10 | 0.001 to 10
8 | O=C(N[C@H]1CC[C@H](C(=O)NC2CC2)CC1)O[C@@H]1CCN(c2cn[nH]c(=O)c2Cl)C1 [P-0192, (R)-1-(5-chloro-6-oxo-1,6-dihydropyridazin-4-yl)pyrrolidin-3-yl ((1r,4R)-4-(cyclopropylcarbamoyl)cyclohexyl)carbamate] | 0.001 to 10 | 0.001 to 10
9 | CCN(C)C(=O)[C@H]1CC[C@H](NC(=O)O[C@@H]2CCN(c3cn[nH]c(=O)c3Cl)C2)CC1 [P-0193, (R)-1-(5-chloro-6-oxo-1,6-dihydropyridazin-4-yl)pyrrolidin-3-yl ((1r,4R)-4-(ethyl(methyl)carbamoyl)cyclohexyl)carbamate] | 0.001 to 10 | 0.001 to 10
10 | O=C(N[C@H]1CC[C@H](C(=O)Nc2ccccc2)CC1)O[C@@H]1CCN(c2cn[nH]c(=O)c2Cl)C1 [P-0194, (R)-1-(5-chloro-6-oxo-1,6-dihydropyridazin-4-yl)pyrrolidin-3-yl ((1r,4R)-4-(phenylcarbamoyl)cyclohexyl) carbamate] | 0.001 to 10 | 0.001 to 10
11 | O=C(N[C@H]1CC[C@@H](NC(=O)c2ccc(F)cc2)CC1)O[C@@H]1CCN(c2cn[nH]c(=O)c2Cl)C1 [P-0195, (R)-1-(5-chloro-6-oxo-1,6-dihydropyridazin-4-yl)pyrrolidin-3-yl ((1s,4S)-4-(4-fluorobenzamido)cyclohexyl) carbamate] | 0.001 to 10 | 0.001 to 10
12 | CC(=O)N[C@H]1CC[C@@H](NC(=O)O[C@@H]2CCN(c3cn[nH]c(=O)c3Cl)C2)CC1 [P-0196, (R)-1-(5-chloro-6-oxo-1,6-dihydropyridazin-4-yl)pyrrolidin-3-yl ((1s,4S)-4-acetamidocyclohexyl)carbamate] | 0.001 to 10 | 0.001 to 10
13 | O=C(NC1CCCCC1)N[C@H]1CC[C@@H](NC(=O)O[C@@H]2CCN(c3cn[nH]c(=O)c3Cl)C2)CC1 [P-0197, (R)-1-(5-chloro-6-oxo-1,6-dihydropyridazin-4-yl)pyrrolidin-3-yl ((1s,4S)-4-(3-cyclohexylureido)cyclohexyl) carbamate] | 0.001 to 10 | 0.001 to 10
14 | O=C(NC1CC2(C1)CN(C(=O)Nc1ccc(F)cc1)C2)O[C@@H]1CCN(c2cn[nH]c(=O)c2Cl)C1 [P-0198, (R)-1-(5-chloro-6-oxo-1,6-dihydropyridazin-4-yl)pyrrolidin-3-yl (2-((4-fluorophenyl)carbamoyl)-2-azaspiro[3.3]heptan-6-yl)carbamate] | 0.001 to 10 | 10 to 100
15 | CCCNC(=O)[C@H]1C[C@H](NC(=O)O[C@@H]2CCN(c3cn[nH]c(=O)c3Cl)C2)C1 [P-0199, (R)-1-(5-chloro-6-oxo-1,6-dihydropyridazin-4-yl)pyrrolidin-3-yl ((1r,3R)-3-(propylcarbamoyl)cyclobutyl) carbamate] | 0.001 to 10 | 10 to 100
16 | O=C(N[C@H]1C[C@H](C(=O)Nc2ccccc2)C1)O[C@@H]1CCN(c2cn[nH]c(=O)c2Cl)C1 [P-0200, (R)-1-(5-chloro-6-oxo-1,6-dihydropyridazin-4-yl)pyrrolidin-3-yl ((1r,3R)-3-(phenylcarbamoyl)cyclobutyl) carbamate] | 0.001 to 10 | 0.001 to 10
17 | Cn1ncc(N2CC[C@@H](OC(=O)N[C@H]3CC[C@H](NS(=O)(=O)c4ccccc4F)CC3)C2)c(Cl)c1=O [P-0201, (R)-1-(5-chloro-1-methyl-6-oxo-1,6-dihydropyridazin-4-yl)pyrrolidin-3-yl ((1r,4R)-4-((2-fluorophenyl)sulfonamido)cyclohexyl)carbamate] | 0.001 to 10 | 0.001 to 10
18 | Cn1ncc(N2CC[C@@H](OC(=O)NC3CCC(F)(F)CC3)C2)c(Cl)c1=O [P-0202, (R)-1-(5-chloro-1-methyl-6-oxo-1,6-dihydropyridazin-4-yl)pyrrolidin-3-yl (4,4-difluorocyclohexyl)carbamate] | 0.001 to 10 | 0.001 to 10
19 | CC(C)(C)C1CCC(NC(=O)O[C@@H]2CCN(c3cn[nH]c(=O)c3Cl)C2)CC1 (stereo partly drawn) [P-0203, (R)-1-(5-chloro-6-oxo-1,6-dihydropyridazin-4-yl)pyrrolidin-3-yl (4-(tert-butyl)cyclohexyl)carbamate] | 0.001 to 10 | 0.001 to 10
20 | O=C(NC1CC2CCC1C2)O[C@@H]1CCN(c2cn[nH]c(=O)c2Cl)C1 (stereo partly drawn) [P-0204, (R)-1-(5-chloro-6-oxo-1,6-dihydropyridazin-4-yl)pyrrolidin-3-yl bicyclo[2.2.1]heptan-2-ylcarbamate] | 0.001 to 10 | 0.001 to 10
21 | O=C(NC1CCCCCC1)O[C@@H]1CCN(c2cn[nH]c(=O)c2Cl)C1 [P-0205, (R)-1-(5-chloro-6-oxo-1,6-dihydropyridazin-4-yl)pyrrolidin-3-yl cycloheptylcarbamate] | 0.001 to 10 | 0.001 to 10
22 | O=C(NC1Cc2ccccc2C1)O[C@@H]1CCN(c2cn[nH]c(=O)c2Cl)C1 [P-0206, (R)-1-(5-chloro-6-oxo-1,6-dihydropyridazin-4-yl)pyrrolidin-3-yl (2,3-dihydro-1H-inden-2-yl)carbamate] | 0.001 to 10 | 0.001 to 10
